Drawing on patent US20240252677A1, “ONE-COMPONENT DELIVERY SYSTEM FOR NUCLEIC ACIDS” (The Trustees of the University of Pennsylvania, priority 2021, published 2024), this text covers Ranking of stability for 33 molecules.

The series is described as follows: Stability of DNPs by DLS after storage at 5° C. The format is physicochemical. Also noted: key: Excellent: the original sizes and distribution types remained almost the same after storage; Good: the original sizes and distribution types changed slightly (size difference was less than 100 nm) or the original size remained almost the same but the DLS curve showed more size distributions after storage. How it is done:
The stability of the DNPs as assayed by DLS. All the samples are prepared in acetate buffer. The stabilities of the constructs were ranked: Excellent (in bold)—the original sizes and distribution remains almost the same after storage; Good—the original relatively big sizes became smaller or broad size distribution became narrower; Not stable—the original relatively big sizes or broad size distribution remained almost the similar level, or the original relatively small sizes became bigger or narrow size distribution became broader.

SMILES strings stand for the structures.

Turning to `CCCCCCCCCCCCCCCOc1cc(COC(=O)CCCN2CCN(CCO)CC2)cc(OCC(CC)CCCC)c1` (stereo not drawn) [IAJD 136, 3-((2-Ethylhexyl)oxy)-5-(pentadecyloxy)benzyl 4-(4-(2-hydroxyethyl)piperazin-1-yl)butanoate], the Ranking of stability result (after 27 days at 5° C.) is given as “Excellent”. On to `CCCCCCCCCCCCCOc1cc(COC(=O)CCCN2CCN(C)CC2)cc(OCC(CC)CCCC)c1` (stereo not drawn) [IAJD 161, 3-((2-Ethylhexyl)oxy)-5-(tridecyloxy)benzyl 4-(4-methylpiperazin-1-yl)butanoate], for which, where the note is “after 21 days at 5° C.”, the Ranking of stability result was “Excellent”. Consider `CCCCCCCCCCCCCCOc1cc(COC(=O)CCCN2CCN(CCO)CC2)cc(OCCCCCCCCCCCCC)c1` [IAJD 172, 3-(Tetradecyloxy)-5-(tridecyloxy)benzyl 4-(4-(2-hydroxyethyl)piperazin-1-yl)butanoate], for which the Ranking of stability entry (after 14 days at 5° C.) is recorded as “Excellent”. Consider `CCCCCCCCCCCCCCCCOc1cc(COC(=O)CCCN2CCN(CCO)CC2)cc(OCCCCCCCCCCCCCCC)c1` [IAJD 150, 3-(Hexadecyloxy)-5-(pentadecyloxy)benzyl 4-(4-(2-hydroxyethyl)piperazin-1-yl)butanoate], for which, where the note is “after 19 days at 5° C.”, the Ranking of stability result was “Excellent”. As to `CCCCCCCCCCCCCCOc1cc(COC(=O)CCCN2CCN(C)CC2)cc(OCCCCCCCCCCCCC)c1` [IAJD 171, 3-(Tetradecyloxy)-5-(tridecyloxy)benzyl 4-(4-methylpiperazin-1-yl)butanoate], the Ranking of stability result (after 21 days at 5° C.) is reported as “Excellent”. `CCCCCCCCCCCCCCCOc1cc(COC(=O)CCCN2CCN(C)CC2)cc(OCCCCCCCCCCC)c1` [IAJD 118, 3-(Pentadecyloxy)-5-(undecyloxy)benzyl 4-(4-methylpiperazin-1-yl)butanoate]: the Ranking of stability entry (after 75 days at 5° C.) is given as “Excellent”. As for `CCCCCCCCCCCCCCCCCCOc1cc(COC(=O)CCCN2CCN(CCO)CC2)cc(OCCCCCCCCCCC)c1` [IAJD 128, 3-(Octadecyloxy)-5-(undecyloxy)benzyl 4-(4-(2-hydroxyethyl)piperazin-1-yl)butanoate], the Ranking of stability result (after 70 days at 5° C.) is “Excellent”. Turning to `CCCCCCCCCCCCCCCCOc1cc(COC(=O)CCCN2CCN(C)CC2)cc(OCCCCCCCCCCCCC)c1` [IAJD 173, 3-(Hexadecyloxy)-5-(tridecyloxy)benzyl 4-(4-methylpiperazin-1-yl)butanoate], the Ranking of stability result (after 21 days at 5° C.) is given as “Good”.

Take `CCCCCCCCCCCCCCCCCCOc1cc(COC(=O)CCCN2CCN(CCO)CC2)cc(OCCCCCCCCCCCCCCC)c1` [IAJD 154, 3-(Octadecyloxy)-5-(pentadecyloxy)benzyl 4-(4-(2-hydroxyethyl)piperazin-1-yl)butanoate]: the Ranking of stability entry (after 35 days at 5° C.) was “Excellent”. For `CCCCCCCCCCCOc1cc(COC(=O)CCCN2CCN(C)CC2)cc(OCCCCCCCCCC)c1` [IAJD 114, 3-(Decyloxy)-5-(undecyloxy)benzyl 4-(4-methylpiperazin-1-yl)butanoate], the Ranking of stability result (after 75 days at 5° C.) is given as “Good”. As for `CCCCCCCCCCCCCCCCCOc1cc(COC(=O)CCCN2CCN(CCO)CC2)cc(OCCCCCCCCCCCCCCC)c1` [IAJD 152, 3-(Heptadecyloxy)-5-(pentadecyloxy)benzyl 4-(4-(2-hydroxyethyl)piperazin-1-yl)butanoate], the Ranking of stability entry (after 35 days at 5° C.) was “Excellent”. On to `CCCCCCCCCCCCCCCOc1cc(COC(=O)CCCN2CCN(C)CC2)cc(OCC(CC)CCCC)c1` (stereo not drawn) [IAJD 135, 3-((2-Ethylhexyl)oxy)-5-(pentadecyloxy)benzyl 4-(4-methylpiperazin-1-yl)butanoate], for which the Ranking of stability entry (after 27 days at 5° C.) was “Excellent”. `CCCCCCCCCCCCCOc1cc(COC(=O)CCCN2CCN(CCO)CC2)cc(OCCCCCCCCCCC)c1` [IAJD 117, 3-(Tridecyloxy)-5-(undecyloxy)benzyl 4-(4-(2-hydroxyethyl)piperazin-1-yl)butanoate]: for the setting “after 70 days at 5° C.”, the Ranking of stability result is on record as “Excellent”.

`CCCCCCCCCCCCCCCCCCOc1cc(COC(=O)CCCN2CCN(CCO)CC2)cc(OCCCCCCCCCCCCC)c1` [IAJD 178, 3-(Octadecyloxy)-5-(tridecyloxy)benzyl 4-(4-(2-hydroxyethyl)piperazin-1-yl)butanoate]: the Ranking of stability entry (after 21 days at 5° C.) is “Excellent”. On the same count and under the same terms, in the case of `CCCCCCCCCCCCCCCCCCOc1cc(COC(=O)CCCN2CCN(C)CC2)cc(OCCCCCCCCCCCCC)c1` [IAJD 177, 3-(Octadecyloxy)-5-(tridecyloxy)benzyl 4-(4-methylpiperazin-1-yl)butanoate] it was “Excellent”. For the molecule `CCCCCCCCCCCCCCCOc1cc(COC(=O)c2cc(OCCOCCOCCCC(=O)CCCN3CCCCC3)c(OCCOCCOCCOCc3ccccc3)c(OCCOCCOCCOC(=O)CCCN3CCCCC3)c2)cc(OCCCCCCCCCCC)c1` [IAJD 157], the Ranking of stability entry (after 19 days at 5° C.) is on record as “Excellent”. Consider `CCCCCCCCCCCCOc1cc(COC(=O)c2cc(OCCOCCOCCCC(=O)CCCN3CCCCC3)c(OCCOCCOCCOCc3ccccc3)c(OCCOCCOCCOC(=O)CCCN3CCCCC3)c2)cc(OCCCCCCCCCCCC)c1` [IAJD 110], for which the Ranking of stability entry (after 75 days at 5° C.) is listed as “Excellent”. For the molecule `CCCCCCCCCCCOc1cc(COC(=O)CCCN2CCN(CCO)CC2)cc(OCCCCCCCCCC)c1` [IAJD 115, 3-(Decyloxy)-5-(undecyloxy)benzyl 4-(4-(2-hydroxyethyl)piperazin-1-yl)butanoate], the Ranking of stability result (after 70 days at 5° C.) is “Excellent”. In the case of `CCCCCCCCCCCCCCCCCOc1cc(CNC(=O)c2cc(OCCOCCOCCOC(=O)CCCN3CCCCC3)c(OCCCOCOCCOCc3ccccc3)c(OCCOCCOCCOC(=O)CCCN3CCCCC3)c2)cc(OCCCCCCCCCCCCCCCCC)c1` [IAJD 159], for the setting “after 11 days at 5° C.”, the Ranking of stability result was “Excellent”. Consider `CCCCCCCCCCCCCCCOc1cc(COC(=O)CCCN2CCN(C)CC2)cc(OCCCCCCCCCCCCCC)c1` [IAJD 147, 3-(Pentadecyloxy)-5-(tetradecyloxy)benzyl 4-(4-methylpiperazin-1-yl)butanoate], for which the Ranking of stability entry (after 19 days at 5° C.) is on record as “Excellent”.

`CCCCCCCCCCCOc1cc(COC(=O)CCCN2CCN(CCO)CC2)cc(OCCCCCCCC)c1` [IAJD 113, 3-(Octyloxy)-5-(undecyloxy)benzyl 4-(4-(2-hydroxyethyl)piperazin-1-yl)butanoate]: the Ranking of stability entry (after 70 days at 5° C.) is “Excellent”.

Regarding `CCCCCCCCCCCCCCCOc1cc(COC(=O)CCCN2CCN(CCO)CC2)cc(OCCCCCCCC)c1` [IAJD 138, 3-(Octyloxy)-5-(pentadecyloxy)benzyl 4-(4-(2-hydroxyethyl)piperazin-1-yl)butanoate], under “after 35 days at 5° C.”, the Ranking of stability entry is reported as “Good”.

Take `CCCCCCCCCCCCCCCOc1cc(COC(=O)CCCN2CCN(CCO)CC2)cc(OCCCCCCCCCCCC)c1` [IAJD 144, 3-(Dodecyloxy)-5-(pentadecyloxy)benzyl 4-(4-(2-hydroxyethyl)piperazin-1-yl)butanoate]: the Ranking of stability result (after 27 days at 5° C.) is recorded as “Excellent”. For `CCCCCCCCCCCCCCOc1cc(CNC(=O)CCCN2CCN(C)CC2)cc(OCCCCCCCCCCC)c1` [IAJD 133, 4-(4-Methylpiperazin-1-yl)-N-(3-(tetradecyloxy)-5-(undecyloxy)benzyl)butanamide], the Ranking of stability result (after 42 days at 5° C.) is “Excellent”. Regarding `CCCCCCCCCCCCCCCOc1cc(COC(=O)CCCN2CCN(CCO)CC2)cc(OCCCCCCCCCCCCC)c1` [IAJD 146, 3-(Pentadecyloxy)-5-(tridecyloxy)benzyl 4-(4-(2-hydroxyethyl)piperazin-1-yl)butanoate], the Ranking of stability result (after 27 days at 5° C.) is “Excellent”. As to `CCCCCCCCCCCCCCCOc1cc(COC(=O)CCCN2CCN(C)CC2)cc(OCCCCCCCCCC)c1` [IAJD 141, 3-(Decyloxy)-5-(pentadecyloxy)benzyl 4-(4-methylpiperazin-1-yl)butanoate], for the setting “after 27 days at 5° C.”, the Ranking of stability result is “Excellent”.

`CCCCCCCCCCCCCOc1cc(COC(=O)CCCN2CCN(CCO)CC2)cc(OCC(CC)CCCC)c1` (stereo not drawn) [IAJD 162, 3-((2-Ethylhexyl)oxy)-5-(tridecyloxy)benzyl 4-(4-(2-hydroxyethyl)piperazin-1-yl)butanoate]: the Ranking of stability entry (after 21 days at 5° C.) is “Excellent”.

As for `CCCCCCCCCCCOc1cc(COC(=O)CCCN2CCN(CCO)CC2)cc(OCC(CC)CCCC)c1` (stereo not drawn) [IAJD 130, 3-((2-Ethylhexyl)oxy)-5-(undecyloxy)benzyl 4-(4-(2-hydroxyethyl)piperazin-1-yl)butanoate], the Ranking of stability entry (after 62 days at 5° C.) is given as “Excellent”.

Turning to `CCCCCCCCCCCCCCOc1cc(COC(=O)c2cc(OCCOCCOCCCC(=O)CCCN3CCCCC3)c(OCCOCCOCCOCc3ccccc3)c(OCCOCCOCCOC(=O)CCCN3CCCCC3)c2)cc(OCCCCCCCCCCC)c1` [IAJD 156], for the setting “after 19 days at 5° C.”, the Ranking of stability entry is given as “Excellent”. In the case of `CCCCCCCCCCCCCCCCCOc1cc(COC(=O)CCCN2CCN(C)CC2)cc(OCCCCCCCCCCC)c1` [IAJD 126, 3-(Heptadecyloxy)-5-(undecyloxy)benzyl 4-(4-methylpiperazin-1-yl)butanoate], the Ranking of stability result (after 70 days at 5° C.) is “Excellent”. Consider `CCCCCCCCCCCCCCCOc1cc(COC(=O)CCCN2CCN(C)CC2)cc(OCCCCCCCCCCCC)c1` [IAJD 143, 3-(Dodecyloxy)-5-(pentadecyloxy)benzyl 4-(4-methylpiperazin-1-yl)butanoate], for which the Ranking of stability entry (after 27 days at 5° C.) is on record as “Excellent”. With `CCCCCCCCCCCCCCCOc1cc(COC(=O)CCCN2CCN(CCO)CC2)cc(OCCCCCCCCCCC)c1` [IAJD 119, 3-(Pentadecyloxy)-5-(undecyloxy)benzyl 4-(4-(2-hydroxyethyl)piperazin-1-yl)butanoate], the Ranking of stability result (after 62 days at 5° C.) is reported as “Good”. For the molecule `CCCCCCCCCCCOc1cc(COC(=O)CCCN2CCN(CCO)CC2)cc(OCCCCCCCCC)c1` [IAJD 122, 3-(Nonyloxy)-5-(undecyloxy)benzyl 4-(4-(2-hydroxyethyl)piperazin-1-yl)butanoate], the Ranking of stability result (after 62 days at 5° C.) is reported as “Excellent”.
